Laboratory results taken from patent US20110207689A1, “THE TREATMENT OF HEARING LOSS” (Auckland UniServices Limited, priority 2008, published 2011).

What was measured:
Format in all cases: in vivo, Wistar rats
[1] = system: rats exposed to 8-12 kHz band noise for 2 hours at 110 dB SPL; assay: ABR threshold shifts after acute (2 hours) noise exposure, systemic ADAC (Experiment 2); settings: 14 days post-noise
Description: ABRs were measured in response to auditory clicks and pure tones (4-28 kHz) before and at time intervals (30 minutes and 14 days) after noise exposure. Five ADAC injections (100 μg/kg i.p.) were administered at 24 hour intervals commencing 6 hours post-noise. In the control group, injections of the vehicle solution were administered at the same intervals as ADAC. Data are expressed as means±SEM. Animal numbers: n=8 per group. *p<0.05; **p<0.01; unpaired t-test.
Rats were exposed to 8-12 kHz band noise presented for 2 hours at 110 dB SPL. […]
ABRs were obtained by placing fine platinum electrodes subdermally at the mastoid region of the ear of interest (active electrode), scalp vertex (reference) and mastoid region of the opposite ear (ground electrode). […] The sound threshold of the ABR complex (waves I-IV) were determined by progressively attenuating the sound intensity until the waveform can no longer be observed. The acoustic stimuli for ABR were produced and the responses recorded using a Tucker-Davis Technologies auditory physiology workstation (Alachua, Fla., USA).
All ABR measurements were performed in a sound attenuator chamber (Shelburg Acoustics, Sydney, Australia). […] The ABR threshold was defined as the lowest intensity (to the nearest 5 dB) at which a response could be visually detected above the noise floor. […]

[2] = system: organ of Corti hair cells; assay: Hair cell loss, phalloidin-stained organ of Corti after 24 hours noise (Experiment 1); settings: basal turn, noise 8-12 kHz 110 dB SPL 24 hours, versus vehicle
From the text: After the last ABR measurement, rats were killed by Pentobarbitone overdose and cochleae removed for histological analysis. The isolated cochleae were kept in 4% Paraformaldehyde overnight, until further processing (decapsulation or decalcification).
After the overnight fixation, the cochlea was decapsulated in 0.1 M PBS, to isolate the organ of Corti. The organ of Corti was removed with fine forceps, and separated into the apical, middle and basal turns. Wholemount tissues of the organ of Corti were placed into a 24-well plate, and then permeabilised with 1% Trition-X in 0.1 M PBS for 1 hour. 1% Alexa Fluor 488 phalloidin (Invitrogen) dissolved in 0.1 M PBS was used to stain the hair cells and their stereocilia. Tissues were incubated in phalloidin for 40 minutes, washed with 0.1 M PBS 3×10 min and mounted onto glass slides using CitiFlour. The slides were visualised using a Zeiss epi-fluorescence microscope and processed with Axiovision v3.1 software, using dark field filter and 100×, 200×, and 400× magnification. Non-overlapping images were taken for the entire length of the cochlea, and the number of missing outer hair cells was counted for each turn and presented as a percentage of total number of hair cells.

[3] = Body weight, temperature and behaviour in animals treated with ADAC (Experiment 2)
Description: A. Body weight was measured immediately before noise exposure and 14 days after noise exposure. B. Rectal temperature (° C.) was measured before ADAC administration and 30 and 60 minutes after the injection. Number of animals: n=8 per group.

## NCCNC(=O)Cc1ccc(NC(=O)Cc2ccc(Nc3ncnc4c3ncn4[C@@H]3O[C@H](CO)[C@@H](O)[C@H]3O)cc2)cc1 [ADAC, adenosine amine congener]
[1]; five ADAC injections
  ABR threshold shifts versus vehicle-treated controls: threshold shifts were reduced
[1]; pure tone frequencies 4 to 16 kHz, five ADAC injections 100 μg/kg i.p. commencing 6 hours post-noise
  threshold recovery, highest: up to 30 dB
[2]
  hair cell morphology, surface preparation of the organ of Corti: well preserved hair cell morphology
[3]; ADAC 100 μg/kg
  overt behavioural changes: did not induce overt behavioural changes
[3]; ADAC 100 μg/kg, before noise exposure and 14 days after
  body weight: did not induce overt behavioural changes in rats or alterations in body weight
[3]; ADAC treatment
  signs of systemic toxicity (loss of body weight, feeding or drinking behaviour, hypothermia): No signs of systemic toxicity
[3]; before and 30 and 60 minutes after ADAC 100 μg/kg injection
  body temperature (rectal): remained stable
